Data taken from paper doi:10.1101/2023.12.04.569845, “Identification of 4-(6-((2-methoxyphenyl)amino)pyrazin-2-yl)benzoic acids as CSNK2A inhibitors with antiviral activity and improved selectivity over PIM3” (bioRxiv, 2023).
Where two headings read alike, the source gives them in different places. Values belong to the compound of their own block, whether it stands above or below them.

Legend:
Assay in all cases: biochemical
Parameters in all cases: Thermal shift (DSF, SYPRO Orange) Tm shift of recombinant kinase domains at 10 uM compound
[1] = target: SRC (Homo sapiens, UniProt P12931)
Procedure: (§1) S23 Thermal stability kinase selectivity. The assay was performed as previously described. 9,10 Briefly, recombinant protein kinase domains at a concentration of 2 μM were mixed with 10 μM compound in a buffer containing 20 mM HEPES, pH 7.5, and 500 mM NaCl. SYPRO Orange (5000×, Invitrogen) was added as a fluorescence probe (1 µl per mL). Subsequently, temperature-dependent protein unfolding profiles were measured using the QuantStudio™ 5 realtime PCR machine (Thermo Fisher). […] The temperature was raised with a step rate of 3°C per minute. Data points were analysed with the internal software (Thermal Shift SoftwareTM Version 1.4, Thermo Fisher) using the Boltzmann equation to determine the inflection point of the transition curve.

[2] = target: T1, DRAK2 (Homo sapiens, UniProt O94768)
T1 construct: gene STK17B
T1 sequence (O94768 1-372): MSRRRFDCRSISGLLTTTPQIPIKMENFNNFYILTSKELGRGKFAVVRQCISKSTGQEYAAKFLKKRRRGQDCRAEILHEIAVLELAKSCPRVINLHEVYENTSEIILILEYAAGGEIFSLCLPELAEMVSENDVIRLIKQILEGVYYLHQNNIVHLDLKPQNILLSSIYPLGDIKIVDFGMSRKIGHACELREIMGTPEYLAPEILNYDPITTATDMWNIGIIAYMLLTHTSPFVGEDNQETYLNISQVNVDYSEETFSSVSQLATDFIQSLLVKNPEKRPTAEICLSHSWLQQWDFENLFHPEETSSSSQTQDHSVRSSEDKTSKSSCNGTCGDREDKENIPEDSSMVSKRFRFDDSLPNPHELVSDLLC
Procedure: as §1

[3] = target: T2, CASK (Homo sapiens, UniProt O14936)
T2 sequence (O14936 1-926): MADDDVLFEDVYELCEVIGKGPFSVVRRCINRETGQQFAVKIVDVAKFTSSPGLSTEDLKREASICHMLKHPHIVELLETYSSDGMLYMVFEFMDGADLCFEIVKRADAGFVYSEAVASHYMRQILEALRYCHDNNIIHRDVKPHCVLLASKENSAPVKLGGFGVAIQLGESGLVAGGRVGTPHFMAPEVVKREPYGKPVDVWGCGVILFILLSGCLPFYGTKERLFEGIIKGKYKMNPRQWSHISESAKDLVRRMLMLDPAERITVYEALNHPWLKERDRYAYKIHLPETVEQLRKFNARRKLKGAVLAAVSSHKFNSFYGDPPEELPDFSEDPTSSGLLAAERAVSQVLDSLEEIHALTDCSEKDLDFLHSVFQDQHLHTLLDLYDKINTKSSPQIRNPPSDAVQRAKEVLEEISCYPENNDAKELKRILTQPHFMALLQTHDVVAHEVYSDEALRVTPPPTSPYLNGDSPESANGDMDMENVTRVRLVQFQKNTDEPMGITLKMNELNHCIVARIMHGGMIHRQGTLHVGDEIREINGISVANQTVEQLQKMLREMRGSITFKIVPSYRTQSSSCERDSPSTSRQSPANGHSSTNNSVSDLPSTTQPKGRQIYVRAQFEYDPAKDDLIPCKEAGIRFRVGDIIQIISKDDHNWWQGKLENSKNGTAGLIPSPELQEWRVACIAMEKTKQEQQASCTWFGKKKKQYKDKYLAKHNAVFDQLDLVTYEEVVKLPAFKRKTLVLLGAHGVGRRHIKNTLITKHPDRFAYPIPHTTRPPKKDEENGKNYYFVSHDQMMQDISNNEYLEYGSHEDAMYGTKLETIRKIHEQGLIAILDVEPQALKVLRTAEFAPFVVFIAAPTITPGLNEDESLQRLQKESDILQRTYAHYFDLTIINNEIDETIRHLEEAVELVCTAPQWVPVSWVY
Procedure: as §1

[4] = target: T3, Haspin (Homo sapiens, UniProt Q8TF76)
T3 sequence (Q8TF76 1-798): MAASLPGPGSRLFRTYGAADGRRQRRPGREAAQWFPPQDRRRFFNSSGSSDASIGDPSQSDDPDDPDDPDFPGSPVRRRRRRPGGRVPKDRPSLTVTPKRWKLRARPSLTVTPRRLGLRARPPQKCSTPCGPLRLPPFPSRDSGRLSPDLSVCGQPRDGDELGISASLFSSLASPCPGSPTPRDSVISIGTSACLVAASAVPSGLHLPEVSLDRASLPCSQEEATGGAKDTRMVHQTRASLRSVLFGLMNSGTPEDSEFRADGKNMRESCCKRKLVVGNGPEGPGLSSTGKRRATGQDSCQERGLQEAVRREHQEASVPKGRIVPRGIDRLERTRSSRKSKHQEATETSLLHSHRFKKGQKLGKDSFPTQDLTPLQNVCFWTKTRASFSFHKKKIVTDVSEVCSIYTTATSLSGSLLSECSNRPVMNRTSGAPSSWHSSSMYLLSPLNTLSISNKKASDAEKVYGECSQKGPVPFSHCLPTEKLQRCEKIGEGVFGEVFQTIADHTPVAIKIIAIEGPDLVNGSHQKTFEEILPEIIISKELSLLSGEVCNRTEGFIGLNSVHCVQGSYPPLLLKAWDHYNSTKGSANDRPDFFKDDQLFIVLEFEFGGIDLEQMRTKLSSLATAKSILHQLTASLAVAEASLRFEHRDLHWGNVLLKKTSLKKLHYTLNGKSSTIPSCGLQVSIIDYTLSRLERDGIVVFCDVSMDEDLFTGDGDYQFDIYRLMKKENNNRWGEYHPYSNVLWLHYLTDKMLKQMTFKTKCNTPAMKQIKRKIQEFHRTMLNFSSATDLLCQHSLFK
Procedure: as §1

[5] = target: T4, MYT1 (Homo sapiens, UniProt Q99640)
T4 construct: gene PKMYT1
T4 sequence (Q99640 1-499): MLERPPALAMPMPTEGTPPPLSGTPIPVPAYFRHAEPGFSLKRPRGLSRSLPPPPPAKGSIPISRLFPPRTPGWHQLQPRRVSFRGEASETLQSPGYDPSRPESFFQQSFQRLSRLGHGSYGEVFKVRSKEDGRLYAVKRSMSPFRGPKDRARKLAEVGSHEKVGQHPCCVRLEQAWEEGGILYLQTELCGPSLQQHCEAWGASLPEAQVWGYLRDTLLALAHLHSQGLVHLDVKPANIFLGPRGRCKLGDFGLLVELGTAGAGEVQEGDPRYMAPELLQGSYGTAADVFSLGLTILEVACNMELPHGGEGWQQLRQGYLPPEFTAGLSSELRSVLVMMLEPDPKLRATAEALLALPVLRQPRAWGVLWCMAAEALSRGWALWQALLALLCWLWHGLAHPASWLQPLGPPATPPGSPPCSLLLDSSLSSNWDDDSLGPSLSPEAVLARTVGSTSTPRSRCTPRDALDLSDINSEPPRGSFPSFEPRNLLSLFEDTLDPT
Procedure: as §1

SRC, sequence (P12931 whole entry): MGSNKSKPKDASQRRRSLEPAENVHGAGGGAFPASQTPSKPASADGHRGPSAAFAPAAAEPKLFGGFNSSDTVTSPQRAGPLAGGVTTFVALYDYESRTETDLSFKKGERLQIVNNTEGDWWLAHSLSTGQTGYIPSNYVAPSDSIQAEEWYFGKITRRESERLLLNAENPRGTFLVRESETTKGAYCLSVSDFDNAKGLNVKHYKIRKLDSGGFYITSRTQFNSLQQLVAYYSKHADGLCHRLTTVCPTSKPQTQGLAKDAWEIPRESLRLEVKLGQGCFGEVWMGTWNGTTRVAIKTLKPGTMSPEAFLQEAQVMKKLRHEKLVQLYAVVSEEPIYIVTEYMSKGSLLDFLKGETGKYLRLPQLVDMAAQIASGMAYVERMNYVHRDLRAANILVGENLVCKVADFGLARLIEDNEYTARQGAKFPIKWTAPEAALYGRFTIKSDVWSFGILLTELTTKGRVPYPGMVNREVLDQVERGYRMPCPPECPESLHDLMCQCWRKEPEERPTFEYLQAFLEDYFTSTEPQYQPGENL

ΔTm at 10 µM ([1]; read-out: 7c): 3 °C
ΔTm at 10 µM ([2]; read-out: 7c): 0 °C
ΔTm at 10 µM ([3]; read-out: 7c): 0 °C
ΔTm at 10 µM ([4]; read-out: 7c): 5 °C
ΔTm at 10 µM ([5]; read-out: 7c): 0 °C
Compound: COc1ccc(OC(C)C)cc1Nc1cncc(-c2ccc(C(=O)O)cc2)n1 [7c]

ΔTm at 10 µM ([1]; read-out: 6c): 3 °C
ΔTm at 10 µM ([2]; read-out: 6c): 2 °C
ΔTm at 10 µM ([3]; read-out: 6c): 1 °C
ΔTm at 10 µM ([4]; read-out: 6c): 0 °C
ΔTm at 10 µM ([5]; read-out: 6c): 0 °C
Compound: CC(C)Oc1ccc2ccn(-c3cncc(-c4ccc(C(=O)O)cc4)n3)c2c1 [6c]

ΔTm at 10 µM ([1]; read-out: 2): 3 °C
ΔTm at 10 µM ([2]; read-out: 2): 3 °C
ΔTm at 10 µM ([3]; read-out: 2): 0 °C
ΔTm at 10 µM ([4]; read-out: 2): 3 °C
ΔTm at 10 µM ([5]; read-out: 2): 0 °C
Compound: CC(C)Nc1ccc2cnn(-c3cncc(-c4ccc(C(=O)O)cc4)n3)c2c1 [compound 2, 2]
